# Results from patent publication US12466834B2, “Imidazodiazepinediones and methods of use thereof” (GFB (ABC), LLC, priority 2018, dated 2025).
# Biological target: T1, human TRPC5 (Homo sapiens, UniProt Q9UL62)
# T1 construct: expressed in transfected cells
# T1 sequence (Q9UL62 1-973): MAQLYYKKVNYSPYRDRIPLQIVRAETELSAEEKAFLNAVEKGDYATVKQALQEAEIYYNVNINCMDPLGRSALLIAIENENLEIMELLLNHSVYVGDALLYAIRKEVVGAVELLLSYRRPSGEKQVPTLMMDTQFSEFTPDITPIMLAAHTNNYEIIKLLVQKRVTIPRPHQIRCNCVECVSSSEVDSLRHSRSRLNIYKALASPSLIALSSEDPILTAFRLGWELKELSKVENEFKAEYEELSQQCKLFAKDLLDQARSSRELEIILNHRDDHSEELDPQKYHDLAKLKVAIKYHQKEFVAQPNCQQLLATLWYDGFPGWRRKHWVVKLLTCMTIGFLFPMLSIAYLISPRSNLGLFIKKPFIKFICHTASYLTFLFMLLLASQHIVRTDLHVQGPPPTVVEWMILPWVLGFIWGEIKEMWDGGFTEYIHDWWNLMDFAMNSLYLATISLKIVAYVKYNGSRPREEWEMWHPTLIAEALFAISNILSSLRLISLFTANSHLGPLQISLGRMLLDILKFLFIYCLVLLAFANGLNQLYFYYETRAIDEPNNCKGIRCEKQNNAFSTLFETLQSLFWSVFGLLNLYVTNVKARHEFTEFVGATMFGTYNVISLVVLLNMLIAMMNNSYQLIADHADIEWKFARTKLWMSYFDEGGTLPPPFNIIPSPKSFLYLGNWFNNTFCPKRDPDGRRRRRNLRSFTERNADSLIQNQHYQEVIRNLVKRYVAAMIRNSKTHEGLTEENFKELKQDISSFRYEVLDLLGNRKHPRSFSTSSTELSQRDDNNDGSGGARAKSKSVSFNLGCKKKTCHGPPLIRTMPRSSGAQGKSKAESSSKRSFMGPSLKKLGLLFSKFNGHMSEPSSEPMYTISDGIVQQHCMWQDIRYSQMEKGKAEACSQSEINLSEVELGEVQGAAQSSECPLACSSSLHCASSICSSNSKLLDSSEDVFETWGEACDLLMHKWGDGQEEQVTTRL
# Test: Automated patch clamp assay (QPatch), antagonist mode
# Type: cell-based
# Details: HEK-TREx hTRPC5 cells; channel activated with Rosiglitazone 30 μM; normalised to ML-204 block; read-out: Qpatch Potency Range
# Experimental: ICLN-1633 cells (HEK-TREx hTRPC5) expressing TRPC5 were generated as follows. Commercially available HekTrex-293 cells were seeded at 0.7×10^6 cells/well in a 1×6-well plate 24 hrs prior to transfection using 2 mL cell growth media containing no antibiotics (1× DMEM/high glucose (Hyclone #SH30022.02); 10% fetal bovine serum (Sigma) 2 mM sodium pyruvate, 10 mM HEPES). The human TRPC5 coding sequence (NM_012471 with a silent T478C mutation) was cloned into pcDNA5/TO (Invitrogen; Cat No. V103320) using hygromycin as the resistance gene and the plasmid (SEQ ID NO:1) propagated using T-Rex-293 cells (Invitrogen; Cat No. R71007) following manufacturer's directions. On day 2, 2 μg of plasmid DNA plus 6 μl of Xtreme-GENE HP reagent in Optimem (200 μl total volume) was prepared and incubated for 15 min at room temperature. This plasmid solution was then gently overlayed dropwise onto each well and the plate was gently swirled to mix complex with the media for approximately 30 seconds. Transfected cells were incubated at 37° C. in a 10% CO2 incubator for 24 hrs. The transfected cells were harvested and transferred into 2×150 mm dishes containing cell growth media with no antibiotics at 37° C.
# The next day selection was initiated to generate a stable pool by adding cell growth media containing 150 μg/mL Hygromycin and 5 μg/mL Blasticidin and cells were allowed to grow. Media with the selection agent was changed every 1-2 days as needed to remove dead cells. After 7 days, the hygromycin concentration was reduced to 75 μg/mL and cells growth was allowed to continue.
# Single clones were selected as follows. The stable pool was diluted to 10 cells/mL and seeded (100 μl/well) into 24×96 well plates (˜1 cell/well) and allowed to grow for 7 days in cell growth media. Fresh media (100 μl) was added and the cells allowed to grow for another 1-2 weeks and then stored frozen or used immediately.
# The automated electrophysiological assay was carried out at room temperature. On the day of the experiment, TRPC5 cells were cultured according to our Standard Operating Procedure. Briefly, cells were harvested using TrypLE™ Express, re-suspended in serum free medium, added to the automated platform and used within 0.5-3 hours. Internal and external physiological solutions were freshly prepared prior to the assay. The external solution contained: 145 mM NaCl, 4 mM KCl, 2 mM CaCl2, 1 mM MgCl2, 10 mM HEPES, 10 mM glucose, pH 7.4 with NaOH and 310 mOsm/L. The internal solution contained 120 mM L-aspartic acid, 120 mM CsOH·H2O, 20 mM CsCl, 2 mM MgCl2, 8.8 mM CaCl2, 10 mM EGTA, 10 mM HEPES and 2 mM Na2ATP; pH 7.2 with CsOH and 330 mOsm/L. The free internal Ca^2+ concentration was buffered to 1 μM, according to the WCabuf software. The automated electrophysiological platform QPatch 16 from Sophion (Denmark) was used to carry out the compounds profiling. The series resistance and quality of seals were continuously monitored during the experiments. Data were analyzed using Sophion QPatch assay software 5.6 (Odense). Data were normalized using the maximum activation obtained during the pre-compound agonist application as the top value (1.0) and maximum inhibition induced by ML-204 as the bottom value (0.0). IC50 values were calculated using a least squares regression algorithm (Hill equation).
# To monitor the ion currents, a voltage ramp from −100 mV to +100 mV, over 300 ms, was applied every 10 seconds, from a holding potential of −60 mV. Antagonist-mode: After recording for a minimum of 60 seconds control period, the EC60 concentration of the TRPC5 agonist, Rosiglitazone (30 μM), was applied to activate the channel. After reaching steady-state, co-application of increasing concentrations of test compound were applied followed by two applications of Rosiglitazone EC60 and a saturating concentration of the specific blocker ML-204 (100 μM).
row,IC50 [µM],SMILES
1,> 30,"C[C@@H]1C(=O)N(C)c2nc(Oc3cccc(F)c3)n(Cc3ccc(Cl)cc3)c2C(=O)N1CCCO (single isomer, unassigned) [Compound 19]"
2,> 30,"O=C1c2c(nc(Oc3cccc(OC(F)(F)F)c3)n2Cc2ccc(Cl)cc2)N2CCC[C@H]2C(=O)N1CCCO (single isomer, unassigned) [Compound 22]"
3,1 to 30,"O=C1c2c(nc(Oc3cccc(OC(F)(F)F)c3)n2Cc2ccc(Cl)cc2)N2CCC[C@@H]2C(=O)N1CCCO (single isomer, unassigned) [Compound 23]"
4,1 to 30,"CN1CC(=O)N(CCCO)C(=O)c2c1nc(Oc1cccc(OC(F)(F)F)c1)n2Cc1ccc(Cl)cc1 [Compound 21, 1-[(4-chlorophenyl)methyl]-7-(3-hydroxypropyl)-4-methyl-2-[3-(trifluoromethoxy)phenoxy]-1H,4H,5H,6H,7H,8H-imidazo[4,5-e][1,4]diazepine-6,8-dione]"
